According to patent US20090270306A1, “Glass Storage” (priority 2005, published 2009):
Read-outs that look alike come from different tables or passages of the source.

Experiments:
[1] = initial pKa, cited from earlier work
[2] = pH behaviour on addition of sodium hydroxide (FIG. 1); assay type: physicochemical; conditions: 0.2 g in 200 ml water, 0.1M sodium hydroxide added; during almost the entire addition
[3] = 1% solution in water
[4] = other suitable buffer compounds (Table 3)
[5] = buffers tested for stain inhibitor performance (Table 1)

Row | SMILES | pKa [1, 4] | pKa [1, 5] | further results
1 | O=S(=O)(O)CCNC1CCCCC1 [CHES, 2-(cyclohexylamino) ethanesulphonic acid] | 9.5 | – | –
2 | O=S(=O)(O)CC(O)CN1CCN(CC(O)CS(=O)(=O)O)CC1 (stereo not drawn) [POPSO, piperazine-N-N′-bis (2-hydroxypropanesulphonic acid)] | 7.8 | – | –
3 | O=S(=O)(O)CCCNC(CO)(CO)CO [TAPS, N-[tris(hydroxymethyl)methyl]-3-aminopropanesulphonic acid] | – | 8.4 | –
4 | O=C(O)CNC(CO)(CO)CO [Tricine, N-[tris (hydroxymethyl)methy] glycine] | – | 8.2 | –
5 | O=C(O)CCCCC(=O)O [adipic acid] | – | – | pH during addition of alkali [2]: < 5; pH of solution [3]: 2.8
